Source: patent publication US7799824B2, “Quaternary salt CCR2 antagonists” (OraPharma, Inc., priority 2004, dated 2010)
“And” between values parts separate entries of the source, which are not always exact repeats. Equal values may be shown once.

The molecules below were run against T1, CCR2 (Homo sapiens, UniProt P41597) (assay: MCP-1 Receptor Binding Assay in THP-1 Cells). Settings: MCP-1 binding to CCR2; test concentration of 25 μM, unless indicated otherwise; read-out: % Inhibition Ligand Binding.
T1 sequence (P41597 1-360 isoform P41597-2): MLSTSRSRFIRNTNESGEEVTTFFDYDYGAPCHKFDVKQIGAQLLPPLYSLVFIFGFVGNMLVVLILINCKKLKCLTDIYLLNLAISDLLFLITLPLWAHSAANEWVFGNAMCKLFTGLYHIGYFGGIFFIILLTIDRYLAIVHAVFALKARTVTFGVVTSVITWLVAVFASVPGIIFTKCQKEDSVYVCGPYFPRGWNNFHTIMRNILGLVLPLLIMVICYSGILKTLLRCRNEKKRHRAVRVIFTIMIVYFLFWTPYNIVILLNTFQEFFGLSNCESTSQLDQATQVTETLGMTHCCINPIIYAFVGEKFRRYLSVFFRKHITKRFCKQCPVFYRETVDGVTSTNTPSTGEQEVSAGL
Description: THP-1 cells were obtained from American Type Culture Collection (Manassas, Va., USA). […] The cell density was maintained between 0.5×10^6 cells/mL.
Cells were then harvested onto a filter plate, dried, and 20 μL of Microscint 20 was added to each well. Plates were counted in a TopCount NXT, Microplate Scintillation & Luminescence Counter (Perkin-Elmer Life Sciences, Inc. Boston, Mass.). Blank values (buffer only) were subtracted from all values and drug treated values were compared to vehicle treated values. 1 μM cold MCP-1 was used for nonspecific binding.

Row | inhibition at 25 µM [%] | Structure (SMILES)
1 | 53 | C[N+](C)(Cc1ccc(NC(=O)c2cccc(Cl)c2Cl)cc1)C1CCCCC1 [Cpd 77, cyclohexyl-[4-(2,3-dichloro-benzoylamino)-benzyl]-dimethyl-ammonium iodide]
2 | 34 | C[N+](C)(Cc1ccc(CNC(=O)C2=Cc3cc(Br)ccc3OC2)cc1)C1CCOCC1 [Cpd 99, (4-{[(6-bromo-2H-chromene-3-carbonyl)-amino]-methyl}-benzyl)-dimethyl-(tetrahydro-pyran-4-yl)-ammonium iodide]

Continued, molecule first:

Row | Structure (SMILES) | inhibition at 25 µM [%]
3 | C[N+]1(Cc2ccc(CNC(=O)C=Cc3ccc(Cl)c(Cl)c3)cc2)CCOCC1 [Cpd 58, 4-(4-{[3-(3,4-dichloro-phenyl)-acryloylamino]-methyl}-benzyl)-4-methyl-morpholin-4-ium iodide] | 53
4 | C[N+]1(Cc2ccc(NC(=O)C=Cc3ccc(Cl)c(Cl)c3)cc2)CCOCC1 [Cpd 60, 4-{4-[3-(3,4-dichloro-phenyl)-acryloylamino]-benzyl}-4-methyl-morpholin-4-ium iodide] | 20
5 | C[N+]1(Cc2ccc(CNC(=O)C=Cc3cccc(C(F)(F)F)c3)cc2)CCOCC1 [Cpd 62, 4-methyl-4-(4-{[3-(3-trifluoromethyl-phenyl)-acryloylamino]-methyl}-benzyl)-morpholin-4-ium iodide] | 9
6 | C[N+](C)(Cc1ccc(CNC(=O)C=Cc2cccc(C(F)(F)F)c2)cc1)C1CCOCC1 [Cpd 64, dimethyl-(tetrahydro-pyran-4-yl)-(4-{[3-(3-trifluoromethyl-phenyl)-acryloylamino]-methyl}-benzyl)-ammonium iodide] | 63
7 | C[N+](C)(Cc1cccc(NC(=O)c2cccc(C(F)(F)F)c2)c1)C1CCOCC1 [Cpd 65, dimethyl-(tetrahydro-pyran-4-yl)-[3-(3-trifluoromethyl-benzoylamino)-benzyl]-ammonium iodide] | 61
8 | C[N+](C)(Cc1ccc(NC(=O)c2cccc3ccccc23)cc1)C1CCOCC1 [Cpd 89, dimethyl-{4-[(naphthalene-1-carbonyl)-amino]-benzyl}-(tetrahydro-pyran-4-yl)-ammonium iodide] | 29
9 | CCC[N+](C)(Cc1ccc(NC(=O)c2ccc3ccccc3c2)cc1)C1CCOCC1 (stereo not drawn) [Cpd 92, methyl-{4-[(naphthalene-2-carbonyl)-amino]-benzyl}-propyl-(tetrahydro-pyran-4-yl)-ammonium iodide] | 54

Same assay, conditions: THP-1 cells, 0.5 nM 125I labeled MCP-1, 2 hours at 30° C.; read-out: Mean Ligand Binding IC50 (inhibition of MCP-1 binding to CCR2)

Row | IC50 | Structure (SMILES)
10 | 580 nM | C[N+](C)(Cc1ccc(NC(=O)C=Cc2cccc(Br)c2)cc1)C1CCCCC1 [Cpd 72, {4-[3-(3-bromo-phenyl)-acryloylamino]-benzyl}-cyclohexyl-dimethyl-ammonium iodide]
11 | 440 nM | C[N+](C)(Cc1ccc(NC(=O)c2cccc(Br)c2)cc1)C1CCCCC1 [Cpd 73, [4-(3-bromo-benzoylamino)-benzyl]-cyclohexyl-dimethyl-ammonium iodide]
12 | 160 nM | C[N+](C)(Cc1ccc(NC(=O)c2ccc(F)c(Cl)c2)cc1)C1CCCCC1 [Cpd 76, [4-(3-chloro-4-fluoro-benzoylamino)-benzyl]-cyclohexyl-dimethyl-ammonium iodide]
13 | 30 nM | Cc1ccc(C(=O)Nc2ccc(C[N+](C)(C)C3CCCCC3)cc2)cc1Cl [Cpd 80, [4-(3-chloro-4-methyl-benzoylamino)-benzyl]-cyclohexyl-dimethyl-ammonium iodide]
14 | 3000 nM | C[N+](C)(Cc1ccc(NC(=O)c2cc(Cl)ccc2Cl)cc1)C1CCCCC1 [Cpd 81, cyclohexyl-[4-(2,5-dichloro-benzoylamino)-benzyl]-dimethyl-ammonium iodide]
15 | 1300 nM | C[N+](C)(Cc1ccc(NC(=O)c2ccc3ccc(Br)cc3c2)cc1)C1CCCCC1 [Cpd 94, {4-[(7-bromo-naphthalene-2-carbonyl)-amino]-benzyl}-cyclohexyl-dimethyl-ammonium iodide]
16 | 180 nM | C[N+](C)(Cc1ccc(NC(=O)C2=Cc3cc(Br)ccc3OC2)cc1)C1CCOCC1 [Cpd 95, {4-[(6-bromo-2H-chromene-3-carbonyl)-amino]-benzyl}-dimethyl-(tetrahydro-pyran-4-yl)-ammonium iodide]
17 | 110 nM | C[N+](C)(Cc1ccc(NC(=O)C2=Cc3cc(Cl)ccc3OC2)cc1)C1CCOCC1 [Cpd 96, {4-[(6-chloro-2H-chromene-3-carbonyl)-amino]-benzyl}-dimethyl-(tetrahydro-pyran-4-yl)-ammonium iodide]
18 | 450 nM | C[N+](C)(Cc1ccc(NC(=O)C2=Cc3cc(Br)ccc3OC2)cc1)C1CCCCC1 [Cpd 97, {4-[(6-bromo-2H-chromene-3-carbonyl)-amino]-benzyl}-cyclohexyl-dimethyl-ammonium iodide]
19 | 270 nM | C[N+](C)(Cc1ccc(NC(=O)C2=Cc3cc(Cl)ccc3OC2)cc1)C1CCCCC1 [Cpd 98, {4-[(6-chloro-2H-chromene-3-carbonyl)-amino]-benzyl}-cyclohexyl-dimethyl-ammonium iodide]

The remaining lines, values behind:

Row | Structure (SMILES) | IC50
20 | C[N+]1(Cc2ccc(NC(=O)c3ccc(Cl)c(Cl)c3)cc2)CCOCC1 [Cpd 59, 4-[4-(3,4-dichloro-benzoylamino)-benzyl]-4-methyl-morpholin-4-ium iodide] | 10000 nM
21 | C[N+]1(Cc2ccc(NC(=O)C=Cc3cccc(Br)c3)cc2)CCOCC1 [Cpd 61, 4-{4-[3-(3-bromo-phenyl)-acryloylamino]-benzyl}-4-methyl-morpholin-4-ium iodide] | 2700 nM
22 | C=CC[N+](C)(Cc1ccc(NC(=O)C=Cc2cccc(Br)c2)cc1)C1CCSCC1 (stereo not drawn) [Cpd 63, allyl-{4-[3-(3-bromo-phenyl)-acryloylamino]-benzyl}-methyl-(tetrahydro-thiopyran-4-yl)-ammonium iodide] | 3500 nM
23 | Cc1cccc(C=CC(=O)Nc2ccc(C[N+](C)(C)C3CCOCC3)cc2)c1 [Cpd 66, dimethyl-(tetrahydro-pyran-4-yl)-[4-(3-m-tolyl-acryloylamino)-benzyl]-ammonium iodide] | 1700 nM
24 | C[N+](C)(Cc1ccc(NC(=O)C=Cc2cccc(C(F)(F)F)c2)cc1)C1CCOCC1 [Cpd 68, dimethyl-(tetrahydro-pyran-4-yl)-{4-[3-(3-trifluoromethyl-phenyl)-acryloylamino]-benzyl}-ammonium iodide] | 1500 nM
25 | C[N+](C)(Cc1ccc(NC(=O)C=Cc2ccc(Cl)c(Cl)c2)cc1)C1CCCCC1 [Cpd 71, cyclohexyl-{4-[3-(3,4-dichloro-phenyl)-acryloylamino]-benzyl}-dimethyl-ammonium iodide] | 170 nM and 320 nM
26 | C[N+](C)(Cc1ccc(NC(=O)c2cccc(C(F)(F)F)c2)cc1)C1CCCCC1 [Cpd 74, cyclohexyl-dimethyl-[4-(3-trifluoromethyl-benzoylamino)-benzyl]-ammonium iodide] | 1500 nM
27 | C[N+](C)(Cc1ccc(NC(=O)c2c(Cl)cccc2Cl)cc1)C1CCCCC1 [Cpd 78, cyclohexyl-[4-(2,6-dichloro-benzoylamino)-benzyl]-dimethyl-ammonium iodide] | 13400 nM
28 | COc1ccc(C(=O)Nc2ccc(C[N+](C)(C)C3CCCCC3)cc2)cc1Cl [Cpd 79, [4-(3-chloro-4-methoxy-benzoylamino)-benzyl]-cyclohexyl-dimethyl-ammonium iodide] | 310 nM
29 | C[N+](C)(Cc1cccc(NC(=O)C=Cc2ccc(Cl)c(Cl)c2)c1)C1CCCCC1 [Cpd 83, cyclohexyl-{3-[3-(3,4-dichloro-phenyl)-acryloylamino]-benzyl}-dimethyl-ammonium iodide] | 1200 nM
30 | C[N+](C)(Cc1cccc(NC(=O)C=Cc2ccc(F)cc2)c1)C1CCCCC1 [Cpd 84, cyclohexyl-{3-[3-(4-fluoro-phenyl)-acryloylamino]-benzyl}-dimethyl-ammonium iodide] | 3200 nM
31 | C[N+](C)(Cc1ccc(NC(=O)c2cccc(-c3ccc(C(F)(F)F)cc3)c2)cc1)C1CCOCC1 [Cpd 85, dimethyl-(tetrahydro-pyran-4-yl)-{4-[(4′-trifluoromethyl-biphenyl-3-carbonyl)-amino]-benzyl}-ammonium iodide] | 5200 nM
32 | Cc1ccc(-c2cccc(C(=O)Nc3ccc(C[N+](C)(C)C4CCCCC4)cc3)c2)cc1 [Cpd 86, cyclohexyl-dimethyl-{4-[(4′-methyl-biphenyl-3-carbonyl)-amino]-benzyl}-ammonium iodide] | 6000 nM
33 | C[N+](C)(Cc1ccc(NC(=O)c2ccc(-c3ccccc3)cc2)cc1)C1CCOCC1 [Cpd 88, {4-[(biphenyl-4-carbonyl)-amino]-benzyl}-dimethyl-(tetrahydro-pyran-4-yl)-ammonium iodide] | 870 nM
34 | C[N+](C)(Cc1ccc(NC(=O)c2ccc3ccccc3c2)cc1)C1CCOCC1 [Cpd 90, dimethyl-{4-[(naphthalene-2-carbonyl)-amino]-benzyl}-(tetrahydro-pyran-4-yl)-ammonium iodide] | 220 nM
35 | CC[N+](C)(Cc1ccc(NC(=O)c2ccc3ccccc3c2)cc1)C1CCOCC1 (stereo not drawn) [Cpd 91, ethyl-methyl-{4-[(naphthalene-2-carbonyl)-amino]-benzyl}-(tetrahydro-pyran-4-yl)-ammonium iodide] | 4100 nM
36 | C[N+](C)(Cc1ccc(NC(=O)c2ccc3ccc(Br)cc3c2)cc1)C1CCOCC1 [Cpd 93, {4-[(7-bromo-naphthalene-2-carbonyl)-amino]-benzyl}-dimethyl-(tetrahydro-pyran-4-yl)-ammonium iodide] | 900 nM
